Measured values reported in patent publication US8426420B2, “Heterocyclic pyrazole-carboxamidesas P2Y12 antagonists” (Sanofi, priority 2007, dated 2013).

Assays:
[1] = tested on: human platelet rich plasma; experiment: Inhibition of human platelet aggregation, 96-well assay; format: cell-based
In short: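 ADP-induced aggregation read as 650 nm absorbance every minute for 20 min at 37 °C, with shaking between reads. PRP (~3×E8 platelets/ml, diluted with PPP, ACD-A blood from healthy volunteers) was exposed to compound for 5 min before adding a 40 μM ADP stock (15 μl into 150 μl).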

human P2Y12 receptor = human P2Y12 receptor (Homo sapiens, UniProt Q9H244); experiment: Human P2Y12 recombinant cell membrane binding assay with 33P 2MeS-ADP; settings: competition against 33P 2MeS-ADP, membranes of CHO cells with recombinant human P2Y12 receptor
human P2Y12 receptor, sequence (Q9H244 whole entry): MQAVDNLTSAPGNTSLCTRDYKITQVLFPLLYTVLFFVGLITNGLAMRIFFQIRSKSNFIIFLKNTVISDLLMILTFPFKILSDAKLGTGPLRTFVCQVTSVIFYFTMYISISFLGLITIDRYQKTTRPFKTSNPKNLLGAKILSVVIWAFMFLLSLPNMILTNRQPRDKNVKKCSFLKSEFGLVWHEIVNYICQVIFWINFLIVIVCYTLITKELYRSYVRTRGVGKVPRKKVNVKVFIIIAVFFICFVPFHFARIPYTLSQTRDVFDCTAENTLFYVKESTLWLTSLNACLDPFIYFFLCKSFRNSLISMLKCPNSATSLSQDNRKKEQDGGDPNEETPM
In short: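 Competition binding against radiolabeled 2MeS-ADP (1.61 nM as added) on membranes from recombinant human P2Y12 CHO cells, 20 min RT after 15 min compound preincubation, pH 7.4. Filtration then scintillation counting; compounds tested in triplicate from 10 μM final, five-fold dilutions, curve fit with plate-defined min/max.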

Row | SMILES | IC50 ([1]; Homo sapiens, Platelet, 20 min) [nM] | IC50 (human P2Y12 receptor) [nM] | IC50 ([1]; ADP-induced aggregation, human platelet rich plasma, 96-well plates, AUC of absorbance over 20 minutes) [nM]
1 | CCOC(=O)N1CCN(C(=O)[C@H](CCC(=O)O)NC(=O)c2cc(OCC(=O)N3CCC[C@H]3C(=O)NC3CCC3)n(-c3ccc(F)c(F)c3)n2)CC1 [Example 83, 4-((S)-4-Carboxy-2-{[5-[2-((S)-2-cyclobutylcarbamoyl-pyrrolidin-1-yl)-2-oxo-ethoxy]-1-(3,4-difluoro-phenyl)-1H-pyrazole-3-carbonyl]-amino}-butyryl)-piperazine-1-carboxylic acid ethyl ester] | 120 | 31 | 
2 | O=C(O)CC[C@H](NC(=O)c1cc(OCC(=O)N2CCC[C@H]2C(=O)NC2CCC2)n(-c2ccccc2)n1)C(=O)N1CCC(C(=O)c2ccccc2)CC1 [Example 106, (S)-5-(4-Benzoyl-piperidin-1-yl)-4-({5-[2-((S)-2-cyclobutylcarbamoyl-pyrrolidin-1-yl)-2-oxo-ethoxy]-1-phenyl-1H-pyrazole-3-carbonyl}-amino)-5-oxo-pentanoic acid] | 1330 | 104 | 
3 | COc1cccc(N2CCN(C(=O)[C@H](CCC(=O)O)NC(=O)c3cc(OCC(=O)N4CCC[C@H]4C(=O)NC4CCC4)n(-c4ccccc4)n3)CC2)c1 [Example 101, (S)-4-({5-[2-((S)-2-Cyclobutylcarbamoyl-pyrrolidin-1-yl)-2-oxo-ethoxy]-1-phenyl-1H-pyrazole-3-carbonyl}-amino)-5-[4-(3-methoxy-phenyl)-piperazin-1-yl]-5-oxo-pentanoic acid] | 790 | 77 | 
4 | CCCOC(=O)N1CCN(C(=O)[C@H](CC(F)(F)F)NC(=O)c2cc(OCC(=O)N3CCC[C@H]3C(=O)NC3CCC3)n(-c3ccccc3)n2)CC1 [Example 273, 4-[(S)-2-({5-[2-((S)-2-Cyclobutylcarbamoyl-pyrrolidin-1-yl)-2-oxo-ethoxy]-1-phenyl-1H-pyrazole-3-carbonyl}-amino)-4,4,4-trifluoro-butyryl]-piperazine-1-carboxylic acid propyl ester] | 380 | 160 | 
5 | CCOC(=O)N1CCN(C(=O)[C@H](CCC(=O)O)NC(=O)c2cc(OCC(=O)N3CCC[C@H]3C(=O)NC3CCC3)n(-c3ccccc3)n2)[C@H](C)C1 [Example 150, (R)-4-[(S)-4-Carboxy-2-({5-[2-((S)-2-cyclobutylcarbamoyl-pyrrolidin-1-yl)-2-oxo-ethoxy]-1-phenyl-1H-pyrazole-3-carbonyl}-amino)-butyryl]-3-methyl-piperazine-1-carboxylic acid ethyl ester] | 70 | 20 | 
6 | O=C(O)CC[C@H](NC(=O)c1cc(OCC(=O)N2CCC[C@H]2C(=O)NCC2CC2)n(-c2ccccc2)n1)C(=O)N1CCN(C(=O)OCc2ccccc2)CC1 [Example 161, 4-[(S)-4-Carboxy-2-({5-[2-((S)-2-(cyclopropylmethyl-carbamoyl)-pyrrolidin-1-yl)-2-oxo-ethoxy]-1-phenyl-1H-pyrazole-3-carbonyl}-amino)-butyryl]-piperazine-1-carboxylic acid benzyl ester] | 240 | 33 | 
7 | CCOC(=O)N1CCN(C(=O)[C@H](CCC(=O)OCC(C)C)NC(=O)c2cc(OCC(=O)N3CCC[C@H]3C(=O)NC3CCC3)n(-c3ccccc3)n2)CC1 [Example 135, 4-[(S)-2-({5-[2-((S)-2-Cyclobutylcarbamoyl-pyrrolidin-1-yl)-2-oxo-ethoxy]-1-phenyl-1H-pyrazole-3-carbonyl}-amino)-4-isobutoxycarbonyl-butyryl]-piperazine-1-carboxylic acid ethyl ester] | 660 | 60 | 
8 | CCCCOC(=O)N1CCN(C(=O)[C@H](COC)NC(=O)c2cc(OCC(=O)N3CCC[C@H]3C(=O)NC3CCC3)n(-c3ccccc3)n2)CC1 [Example 232, 4-[(S)-2-({5-[2-((S)-2-Cyclobutylcarbamoyl-pyrrolidin-1-yl)-2-oxo-ethoxy]-1-phenyl-1H-pyrazole-3-carbonyl}-amino)-3-methoxy-propionyl]-piperazine-1-carboxylic acid butyl ester] | 410 | 16 | 
9 | O=C(NCC(=O)N1CCN(C(=O)OC2CCC2)CC1)c1cc(OCC(=O)N2CCC[C@H]2C(=O)NC2CCC2)n(-c2ccccc2)n1 [Example 192, 4-[2-({5-[2-((S)-2-Cyclobutylcarbamoyl-pyrrolidin-1-yl)-2-oxo-ethoxy]-1-phenyl-1H-pyrazole-3-carbonyl}-amino)-acetyl]-piperazine-1-carboxylic acid cyclobutyl ester] | 190 | 131 | 
10 | CCOC(=O)N1CCN(C(=O)[C@H](CC(=O)O)NC(=O)c2cc(OCC(=O)N3CCC[C@H]3C(=O)NCC3CC3)n(-c3cccc(F)c3)n2)CC1 [Example 77, 4-((S)-3-Carboxy-2-{[5-[2-((S)-2-cyclopropylmethyl-carbamoyl-pyrrolidin-1-yl)-2-oxo-ethoxy]-1-(3-fluoro-phenyl)-1H-pyrazole-3-carbonyl]-amino}-propionyl)-piperazine-1-carboxylic acid ethyl ester] |  | 28 | 160
11 | CCCOC(=O)N1CCN(C(=O)[C@H](C)NC(=O)c2cc(OCC(=O)N3CCC[C@H]3C(=O)NC3CCC3)n(-c3ccccc3)n2)CC1 [Example 208, 4-[(S)-2-({5-[2-((S)-2-Cyclobutylcarbamoyl-pyrrolidin-1-yl)-2-oxo-ethoxy]-1-phenyl-1H-pyrazole-3-carbonyl}-amino)-propionyl]-piperazine-1-carboxylic acid propyl ester] | 390 | 126 | 

Further lines, with some results ahead:

Row | IC50 ([1]; Homo sapiens, Platelet, 20 min) [nM] | IC50 (human P2Y12 receptor) [nM] | SMILES | IC50 ([1]; ADP-induced aggregation, human platelet rich plasma, 96-well plates, AUC of absorbance over 20 minutes) [nM]
12 | 10 | 13 | O=C(O)CC[C@H](NC(=O)c1cc(OCC(=O)N2CCC[C@H]2C(=O)NC2CCC2)n(-c2ccccc2)n1)C(=O)N1CCN(C(=O)OC2CCC2)CC1 [Example 163, 4-[(S)-4-Carboxy-2-({5-[2-((S)-2-cyclobutylcarbamoyl-pyrrolidin-1-yl)-2-oxo-ethoxy]-1-phenyl-1H-pyrazole-3-carbonyl}-amino)-butyryl]-piperazine-1-carboxylic acid cyclobutyl ester] | 
13 | 590 | 108 | CCOC(=O)N1CCN(C(=O)[C@H](CCNC(=O)OC)NC(=O)c2cc(OCC(=O)N3CCC[C@H]3C(=O)NC3CCC3)n(-c3ccccc3)n2)CC1 [Example 93, 4-[(S)-2-({5-[2-((S)-2-Cyclobutylcarbamoyl-pyrrolidin-1-yl)-2-oxo-ethoxy]-1-phenyl-1H-pyrazole-3-carbonyl}-amino)-4-methoxycarbonylamino-butyryl]-piperazine-1-carboxylic acid ethyl ester] | 
14 | 70 | 146 | CCOC(=O)N1CCN(C(=O)[C@H](CCC(=O)O)NC(=O)c2cc(OCC(=O)N3CCC[C@H]3C(=O)N3CCCCC3)n(-c3ccccc3)n2)CC1 [Example 18, 4-{(S)-4-Carboxy-2-[(5-{2-oxo-2-[(S)-2-(piperidine-1-carbonyl)-pyrrolidin-1-yl]-ethoxy}-1-phenyl-1H-pyrazole-3-carbonyl)-amino]-butyryl}-piperazine-1-carboxylic acid ethyl ester] | 
15 | 1650 | 83 | CCOC(=O)N1CCN(C(=O)[C@H](CCC(=O)OCC2CCCC2)NC(=O)c2cc(OCC(=O)N3CCC[C@H]3C(=O)NC3CCC3)n(-c3ccccc3)n2)CC1 [Example 138, 4-[(S)-2-({5-[2-((S)-2-Cyclobutylcarbamoyl-pyrrolidin-1-yl)-2-oxo-ethoxy]-1-phenyl-1H-pyrazole-3-carbonyl}-amino)-4-cyclopentylmethoxycarbonyl-butyryl]-piperazine-1-carboxylic acid ethyl ester] | 
16 | 40 | 81 | CCOC(=O)N1CCN(C(=O)[C@H](CCC(=O)O)NC(=O)c2cc(OCC(=O)N3CC(F)(F)C[C@H]3C(=O)NC3CCC3)n(-c3ccccc3)n2)CC1 [Example 164, 4-[(S)-4-Carboxy-2-({5-[2-((S)-2-cyclobutylcarbamoyl-4,4-difluoro-pyrrolidin-1-yl)-2-oxo-ethoxy]-1-phenyl-1H-pyrazole-3-carbonyl}-amino)-butyryl]-piperazine-1-carboxylic acid ethyl ester] | 
17 | 690 | 43 | CCOC(=O)N1CCN(C(=O)[C@H](CCC(=O)OCC2CC2)NC(=O)c2cc(OCC(=O)N3CCC[C@H]3C(=O)NC3CCC3)n(-c3ccccc3)n2)CC1 [Example 128, 4-[(S)-2-({5-[2-((S)-2-Cyclobutylcarbamoyl-pyrrolidin-1-yl)-2-oxo-ethoxy]-1-phenyl-1H-pyrazole-3-carbonyl}-amino)-4-cyclopropylmethoxycarbonyl-butyryl]-piperazine-1-carboxylic acid ethyl ester] | 
18 | 260 | 76 | CCOC(=O)N1CCN(C(=O)[C@H](CCNC(=O)C2CC2)NC(=O)c2cc(OCC(=O)N3CCC[C@H]3C(=O)NC3CCC3)n(-c3ccccc3)n2)CC1 [Example 95, 4-[(S)-2-({5-[2-((S)-2-Cyclobutylcarbamoyl-pyrrolidin-1-yl)-2-oxo-ethoxy]-1-phenyl-1H-pyrazole-3-carbonyl}-amino)-4-(cyclopropanecarbonyl-amino)-butyryl]-piperazine-1-carboxylic acid ethyl ester] | 
19 | 1130 | 109 | CCOC(=O)N1CCN(C(=O)[C@H](CCNC(C)=O)NC(=O)c2cc(OCC(=O)N3CCC[C@H]3C(=O)NC3CCC3)n(-c3ccccc3)n2)CC1 [Example 92, 4-[(S)-4-Acetylamino-2-({5-[2-((S)-2-cyclobutylcarbamoyl-pyrrolidin-1-yl)-2-oxo-ethoxy]-1-phenyl-1H-pyrazole-3-carbonyl}-amino)-butyryl]-piperazine-1-carboxylic acid ethyl ester] | 
